Results: paper PMC10451299, “Phytochemical Constituents and Biological Activity of Wild and Cultivated Rosmarinus officinalis Hydroalcoholic Extracts” (Antioxidants, 2023)
Marks after values point to notes of the source that are not given here.

Tests used:
[1] = DPPH radical scavenging assay; conditions: mean ± SD, three experiments
Description: The antiradical activity was determined using the stable 1,1-diphenyl-2-picrylhydrazyl radical (DPPH) following the protocol of Brand-Williams with some modifications reported by De Martino and coworkers.

[2] = FRAP (ferric ion reducing antioxidant power) assay; conditions: mean ± SD, three experiments
AChE = conditions: cited from earlier work

Row | Compound | DPPH IC50 (concentration required to reduce the absorbance of DPPH by 50%) [1] | FRAP [2] | activity on AChE (AChE) | effect on the AChE enzyme (AChE)
1 | Cc1c(C)c2c(c(C)c1O)CCC(C)(C(=O)O)O2 (stereo not shown) [Trolox, 6-hydroxy-2,5,7,8-tetramethylchroman-2-carboxylic acid] | 3.65 ± 0.08 ^c µg/mL | 5.48 ± 0.34 ^a mmol Fe^2+ Equivalents/g Extract | – | –
2 | COc1ccc(-c2cc(=O)c3c(O)c(OC)c(OC)cc3o2)cc1 [salvigenin, Salvigenin] | – | – | not active | stimulating effect
